Reference: publication PMC5609913, “Structure based design, synthesis and activity studies of small hybrid molecules as HDAC and G9a dual inhibitors” (Oncotarget, 2017)
Where two headings read alike, the source gives them in different places.

Experiments:
MCF-7 cells = test: Cell anti-proliferation / toxicity assay (CCK-8), MCF-7; format: cell-based
Procedure: (§1) Cell anti-proliferation assays were performed to determine the toxicity of these inhibitors. […] These compounds were further evaluated against the control cell line HEK293 to test their toxicity with a non-cancerous cell line.
(§2) And then the cells were exposed to the different inhibitors with various concentrations for 72 h. […] EC50s were calculated using GraphPad Prizm statistical package with sigmoidal variable slope dose response curve fit.

MDA-MB-231 cells = test: Cell anti-proliferation / toxicity assay (CCK-8), MDA-MB-231; format: cell-based
Procedure: Initial tests designed around assessing whether a synergistic effect would be observed in real when a combination of G9a inhibitor and HDAC inhibitor used in conjunction.
as §1, with “inhibitors. Several cell lines (MDA-MB-231, MCF-7 and A549) were incubated and then treated with varying concentrations of the inhibitors for 72 h, respectively.” for “inhibitors.”
A549, MDA-MB-231, MCF-7 and HEK293 cells were seeded at 8000-10000 cells (100 μl) in white 96-well plates and pre-incubate the plate for 24 h under standard cell culture conditions, respectively. And then the cells were exposed to the different inhibitors with various concentrations for 72 h. Finally, 10 μl of CCK-8 kit solution was added to each well and incubated for 3-4 hours under standard cell culture conditions, and the 96 well plates were measured the absorbance at 450 nm using Perkin–Elmer Wallac Victor ^3V 1420 multi label plate reader (Perkin–Elmer, Wellesley, USA). EC50s were calculated using GraphPad Prizm statistical package with sigmoidal variable slope dose response curve fit.

[1] = target: T1, Mouse histone methyltransferase G9a (969-1263) (Mus musculus, UniProt Q9Z148); test: MALDI-TOF methylation study of G9a enzymatic activity (H3 peptide, SAM); format: biochemical; details: Supplementary Table 1; inhibitor 5 μM, 30 min; average of 3 values
T1 construct: The 6His-sumo mG9a (969-1263) protein was purified using the following procedure; 6His-sumo (N, cleaved yes); made in house; host or cells: Escherichia coli BL21 (DE3)
T1 sequence (Q9Z148 969-1263): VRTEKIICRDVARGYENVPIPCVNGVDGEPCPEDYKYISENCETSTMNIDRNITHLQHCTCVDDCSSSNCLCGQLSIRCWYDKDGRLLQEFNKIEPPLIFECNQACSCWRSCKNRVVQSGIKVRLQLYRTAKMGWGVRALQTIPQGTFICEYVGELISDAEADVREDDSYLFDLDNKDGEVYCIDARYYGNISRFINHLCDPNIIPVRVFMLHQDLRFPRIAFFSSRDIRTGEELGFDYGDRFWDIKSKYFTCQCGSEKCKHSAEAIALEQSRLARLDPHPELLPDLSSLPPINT
Procedure: Figure 3 compounds were synthesized from the commercially available starting material 1. An initial displacement reaction using a primary amine was used to introduce the C4 selective substitution, with the second displacement to introduce the linker at the C2 position following the microwave assisted reaction previously reported. Boc-protected ethylene diamine was treated with compound 2 at 160°C in a microwave for 10 min to yield product 3 with excellent yield. Afterward, the amine 3 was deprotected with TFA/DCM, and the free amine was treated with corresponding monomethyl esters (carbon chain 2-6) in the presence of coupling reagent EDCI and HOBt for about 8 hours to produce mono methyl ester substituted at the C2 position. The ester compounds further treated with hydroxylamine in water to get the corresponding hydroxamic acid derivatives, which were purified using reverse phase flash chromatography to obtain compounds 4-7 and 4a-7a in good yield. Synthesis of compounds in Figure 4 requires the C6 demethoxy core, and this was synthesized according to the reported procedure to yield 10 [45]. […] Compounds with the HDAC pharmacophore at the C4 position (Figure 2B) were synthesized from the starting material 1. […] A parallel synthesis and testing strategy were used in establishing the primary SAR, with the clear rationalization of the structure and activity at each stage we could reduce the synthetic targets. Initially, we evaluated the G9a potential after the introduction of HDAC pharmacophore. A biochemical assay using MALDI-TOF was used to visualize the effects of the synthesized compounds on G9a enzymatic activity, we carried out a biochemical reaction involving target enzyme G9a, methyl donor SAM and substrate H3 peptide at a concentration of 400 nM, 10 μM and 5 μM respectively.
Mouse histone methyltransferase G9a (969-1263) cDNA was amplified from the cDNA of BALB/c mouse thymus, and the fragment was sub-cloned into a vector with a 6His-sumo tag. The mouse G9a (mG9a) was expressed in Escherichia coli BL21 (DE3) by the addition of 1 mM isopropyl-1-thio-D-galactopyranoside (IPTG) and incubated overnight at 16°C.
The in vitro inhibition of G9a by the synthesized compounds were measured by MALDI-TOF mass spectrum (Bruker MALDI TOF/TOF Analyzer). 400 nM purified G9a, 5 μM synthesized histone H3 (1-21) and 10 μM non-radioactive S-adenosyl methionine (Sigma) were added in reaction buffer (50 mM HEPES pH 8.0, 5 μg/ml BSA and 0.1% β-Mercaptoethanol) with or without inhibitors (5 μM). The reaction was incubated at room temperature for 30 min, and stopped by TFA. 1 μl of the sample was mixed with CHCA matrix and m/z peaks were obtained at reflection positive mode. The results of mass spectrum were analyzed using the Bruker flex analysis software, a detailed description of data processing is provided as supplementary information (S3).
[…]
MALDI spectrums were collected using Bruker flex % conversion to product is also C, from this to get the control software and analyzed by flex analysis. After %maximal activity (%MA), C was compared to the % labelling each cluster peaks of H3K9Me0, H3K9Me1 conversion when no inhibitor was used (D). and H3K9Me2 for all of the tested concentrations, area Finally % inhibition was found by subtracting under the cluster (AUC) were extracted by using the same %MA from 100 […]
flex analysis software. % abundance of each peak was Example: % methylation levels and % inhibition calculated by following formula, when used 5 μM compound 14
A = % Abundance of (H3K9Me0) = area of A = 13.09
B = % Abundance of (H3K9Me1) = area of % conversion when no inhibitor was used D = 84.43 H3K9Me1/ (area of H3K9Me0+area of H3K9Me1 + area (average of six measurements) […]

HDAC [2] = test: Homogeneous cellular histone deacetylase assay, A549; format: cell-based, human; details: Supplementary Table 2; NA = not active up to highest concentration tested (100 μM); >100 = IC50 not reached at 100 μM
Procedure: (§3) The enzymatic activity of HDAC was measured in intact cells using the homogeneous cellular assay method. A cell-permeable peptide Boc-K(Ac)-AMC used as the HDAC substrate, after deacetylation it is cleaved by trypsin to release the fluorescent 7-amino-4-methylcoumarin (AMC) and further quantified.
(§4) The manual assay was developed by Thomas's group. […] After 24 h, 9 μl inhibitors with different concentration were added to the HeLa cells and incubation was continued for 3 h under cell culture conditions. After this treatment period, 10 μl of a 2 mM stock solution of the substrate Boc-K(Ac)-AMC was added into the 96 well plates with Hela cells and inhibitors. […] A549 and K562 cell lines used the same method, respectively. IC50s were calculated using GraphPad Prizm statistical package with sigmoidal variable slope dose response curve fit.

HDAC [3] = test: Homogeneous cellular histone deacetylase assay, K562; format: cell-based, human; details: Supplementary Table 2; NA = not active up to highest concentration tested (100 μM); >100 = IC50 not reached at 100 μM; read-out: IC50-HDAC K562
Procedure: as §3, §4

HDAC [4] = test: Homogeneous cellular histone deacetylase assay, Hela; format: cell-based, human; details: Supplementary Table 2; NA = not active up to highest concentration tested (100 μM); >100 = IC50 not reached at 100 μM; read-out: IC50-HDAC Hela
Procedure: as §3, §4

A549 cells = test: Cell anti-proliferation / toxicity assay (CCK-8), A549; format: cell-based; details: Homo sapiens, Table 6, 72 h, >100 = not reached at highest tested concentration (100 μM)
Procedure: as §1, §2

HEK293 cells = test: Cell anti-proliferation / toxicity assay (CCK-8), HEK293 normal cell line; format: cell-based; details: Homo sapiens, Table 6, 72 h
Procedure: as §1, §2

[5] = Homo sapiens, MCF7, Supplementary Table 4, 72 h, CCK-8, >100 = not reached at 100 μM, read-out: EC50 MCF-7
[6] = Homo sapiens, MDA-MB-231, Supplementary Table 4, 72 h, CCK-8, >100 = not reached at 100 μM, read-out: EC50 MDA-MB-231
[7] = Homo sapiens, MDA-MB-231, Table 6, 72 h, CCK-8, mean ± SD of triplicates, read-out: EC50 MDA-MB-231
[8] = Homo sapiens, MDA-MB-231, read-out: EC50, MDA-MB-231 (combination study)

| Compound | EC50 (MCF-7 cells; [5]) [µM] | EC50 (MDA-MB-231 cells; [6]) [µM] | inhibition at 5 µM [1] [%] | also measured |
| --- | --- | --- | --- | --- |
| COc1cc2nc(NCCNC(=O)CCCCC(=O)NO)nc(NC3CCN(C)CC3)c2cc1OC [Compound 6, N1-(2-((6,7-dimethoxy-4-((1-methylpiperidin-4-yl)amino)quinazolin-2-yl)amino)ethyl)-N6-hydroxyadipamide] | > 100 | > 100 | 26.6 ± 11.3 |  |
| COc1cc2nc(NCCNC(=O)CCCCC(=O)NO)nc(NC3CCN(C(C)C)CC3)c2cc1OC [Compound 6a, N1-hydroxy-N6-(2-((4-((1-isopropylpiperidin-4-yl)amino)-6,7-dimethoxyquinazolin-2-yl)amino)ethyl)adipamide] | > 100 | > 100 | 50.6 ± 16.5 |  |
| COc1cc2nc(NCCNC(=O)CCCCCC(=O)NO)nc(NC3CCN(C)CC3)c2cc1OC [Compound 5, N1-(2-((6,7-dimethoxy-4-((1-methylpiperidin-4-yl)amino)quinazolin-2-yl)amino)ethyl)-N7-hydroxyheptanediamide] | > 100 | > 100 | 65 ± 1.95 |  |
| CN1CCCN(c2nc(NC3CCN(Cc4ccccc4)CC3)c3ccc(OCCCCCCCC(=O)NO)cc3n2)CC1 [Compound 30, 8-((4-((1-benzylpiperidin-4-yl)amino)-2-(4-methyl-1,4-diazepan-1-yl)quinazolin-7-yl)oxy)-N-hydroxyoctanamide] |  |  |  | EC50 (MCF-7 cells; Supplementary Table 4, 72 h, CCK-8, >100 = not reached at 100 μM, read-out: EC50 MCF-7): > 100 µM; EC50 (MDA-MB-231 cells; Supplementary Table 4, 72 h, CCK-8, >100 = not reached at 100 μM, read-out: EC50 MDA-MB-231): 24 ± 3.64 µM |
| COc1cc2c(NC3CCN(C(C)C)CC3)nc(N3CCCN(C)CC3)nc2cc1OCCCCCCC(=O)NO [Compound 26, N-hydroxy-7-((4-((1-isopropylpiperidin-4-yl)amino)-6-methoxy-2-(4-methyl-1,4-diazepan-1-yl)quinazolin-7-yl)oxy)heptanamide] | > 100 | 31.3 ± 3.3 |  |  |
| COc1ccc2c(NCCNC(=O)CCCCCCC(=O)NO)nc(N3CCCN(C)CC3)nc2c1 [Compound 21, N1-hydroxy-N8-(2-((7-methoxy-2-(4-methyl-1,4-diazepan-1-yl)quinazolin-4 yl)amino)ethyl)octanediamide] | > 100 | > 100 | 22.8 ± 26.7 | IC50 (HDAC [2]): > 100 µM; IC50 (HDAC [3]): > 100 µM; IC50 (HDAC [4]): > 100 µM |
| O=C(CCCCCCC(=O)Nc1ccccc1)NO [SAHA, reference compound] |  |  |  | EC50 (MDA-MB-231 cells; [7]): 2.87 ± 0.84 µM; EC50 (MDA-MB-231 cells; [8]): 2.87 ± 0.84 µM |
| COc1cc2nc(N3CCCN(C)CC3)nc(NC3CCN(Cc4ccccc4)CC3)c2cc1OC [BIX-01294, reference compound] |  |  | 77.7 ± 5.73 | EC50 (MCF-7 cells; Homo sapiens, MCF7, Table 6, 72 h, CCK-8, mean ± SD of triplicates, read-out: EC50 MCF-7): 8.1 ± 1.99 µM; EC50 (MCF-7 cells; Homo sapiens, MCF7, read-out: EC50, MCF-7 (combination study)): 8.1 ± 1.99 µM; EC50 (A549 cells): 21.7 ± 2.73 µM; EC50 (MDA-MB-231 cells; [7]): 2.16 ± 0.88 µM; EC50 (MDA-MB-231 cells; [8]): 2.16 ± 0.88 µM; EC50 (HEK293 cells): 2.05 ± 0.98 µM |
